Calls of active or inactive are those of the source. The calls are words filed in the database; no cut-off is given here.
Tests used:
[1] = system: Human immunodeficiency virus 1; assay: Antiviral activity against HIV1 3B in H9 cells after 4 days by p24-antigen ELISA; assay type: functional, organism-based; settings: for EC50: Human immunodeficiency virus 1, 3B, H9, 96 h
H9 = assay: Cytotoxicity against human H9 cells after 4 days; assay type: cell-based; settings: H9, 96 h
[2] = Therapeutic index, ratio of IC50 for human H9 cells to EC50 for HIV1 3B; assay type: cell-based; settings: read-out: Ratio IC50/EC50

Structure (SMILES) | EC50 [1] [µM] | IC50 (H9) [µM] | selectivity ratio [2] | Activity [1]
COc1cc2c(c(OC)c1OC)-c1c(cc3c(c1O)OCO3)C[C@H](C)[C@H](C)C2 | 2.4 | 47.1 | 19.4 | 
COc1cc2c(c(O)c1OC)-c1c(cc3c(c1OC)OCO3)C[C@H](C)[C@H](C)C2 (racemic) | < 0.65 | 44.5 | > 68 | 
C/C=C(/C)C(=O)O[C@@H]1c2cc(OC)c(OC)c(OC)c2-c2c(cc3c(c2OC)OCO3)C[C@H](C)[C@@]1(C)O [ANGELOYLGOMISIN P] |  | > 49 |  | inactive
COc1cc2c(c(OC)c1OC)-c1c(cc(OC)c(OC)c1OC)C[C@H](C)[C@@H](C)C2 [DEOXYSCHISANDRIN] |  | > 60 |  | inactive
COc1cc2c(c(O)c1OC)-c1c(cc(OC)c(OC)c1OC)C[C@@H](C)[C@@H](C)C2 [SCHISANHENOL] | 5.7 | 42 | 7.4 | 
C/C=C(/C)C(=O)O[C@H]1c2cc(OC)c(OC)c(OC)c2-c2c(cc3c(c2OC)OCO3)C[C@H](C)[C@]1(C)O [SCHISANTHERIN B] | 40 | > 49 | 1.2 | 
COc1cc2c(c(OC)c1OC)-c1c(cc(OC)c(OC)c1OC)C[C@](C)(O)[C@@H](C)C2 [SCHIZANDRIN] |  | > 58 |  | inactive
C/C=C(\C)C(=O)O[C@@H]1c2cc(OC)c(OC)c(OC)c2-c2c(cc3c(c2OC)OCO3)C[C@H](C)[C@@]1(C)O [TIGLOYLGOMISIN P] | 37 | > 49 | 1.3 | 
Cc1cn([C@H]2C[C@H](N=[N+]=[N-])[C@@H](CO)O2)c(=O)[nH]c1=O [ZIDOVUDINE] | 0.023 |  |  | 
